Measured values as given in patent US20160362478A1, “CD4-MIMETIC SMALL MOLECULES SENSITIZE HUMAN IMMUNODEFICIENCY VIRUS TO VACCINE-ELICITED ANTIBODIES” (priority 2014, published 2016).

What was measured:
HIV-1 JR-FL [1] = assay: Infection of Cf2Th-CD4/CCR5 cells by single-round luciferase virus with HIV-1 JR-FL Env; assay type: cell-based; conditions: for IC50: Human immunodeficiency virus 1, Cf2Th-CD4/CCR5, read-out: IC50, inhibition of HIV-1 JR-FL infection; for inhibition of HIV-1 JR-FL virus relative to parental NBD-556: cells expressing CD4 and CCR5
Experimental: (§1) Recombinant luciferase viruses: 293T human embryonic kidney cells were co-transfected with plasmids expressing the pCMVΔP1Δenv HIV-1 Gag-Pol packaging construct, the R5 YU2 envelope glycoproteins, or the envelope glycoprotein of the control amphotropic murine leukemia virus (A-MLV), and the firefly luciferase-expressing vector at a DNA ratio of 1:1:3 μg using the Effectene transfection reagent (Qiagen). Co-transfection produced single-round, replication-defective viruses. The virus-containing supernatants were harvested 36-40 h after transfection, spun, aliquoted, and frozen at −80° C. until further use. The reverse transcriptase (RT) activities of all viruses were measured as described in Rho, H. M., et al. Virology 1981, 112, 355-360.
(§2) Infection by single-round luciferase viruses. Cf2Th-CCR5-CD4 target cells were seeded at a density of 6×10^3 cells/well in 96-well luminometer-compatible tissue culture plates (PerkinElmer) 24 h before infection. […] In the case of sensitization assays, a constant concentration of compounds was incubated with virus for 30 min at 37° C.; then, 17b or other antibodies (0-100 μg/mL) were added to the virus/compound mixture and incubated for an additional 30 min at 37° C. The mixtures were then added to the target cells and incubated for 48 h at 37° C.; after this time, the medium was removed from each well, and the cells were lysed by the addition of 30 μL passive lysis buffer (Promega) and three freeze-thaw cycles. An EG&G Berthold Microplate Luminometer LB 96V was used to measure the luciferase activity of each well after the addition of 100 μL of luciferin buffer (15 mM MgSO4, 15 mM KPO4, pH 7.8, 1 mM ATP, and 1 mM dithiothreitol) and 50 μL of 1 mM Firefly D-Luciferin Free Acid 99% (Prolume).
The ability of selected CD4-mimetic compounds to inhibit HIV-1 entry was examined. […] Recombinant HIV-1 expressing the firefly luciferase gene was pseudotyped with different envelope glycoproteins, either HIV-1 JR-FL Env or, as a control, the amphotropic murine leukemia virus (A-MLV) envelope glycoproteins. The recombinant viruses were incubated with cells expressing CD4 and CCR5 in the presence of different concentrations of the compounds.

HIV-1 YU2 [2] = assay: Infection of Cf2Th-CD4/CCR5 cells by single-round luciferase virus with HIV-1 YU2 Env; assay type: cell-based; conditions: Human immunodeficiency virus 1, Cf2Th-CD4/CCR5, read-out: IC50, inhibition of HIV-1 YU2 infection
Experimental: as §1
(§3) Infection by single-round luciferase viruses. Cf2Th-CCR5-CD4 target cells were seeded at a density of 6×10^3 cells/well in 96-well luminometer-compatible tissue culture plates (PerkinElmer) 24 h before infection. […] In the case of sensitization assays, a constant concentration of compounds was incubated with virus for 30 min at 37° C.; then, 17b or other antibodies (0-100 μg/mL) were added to the virus/compound mixture and incubated for an additional 30 min at 37° C. […]

A-MLV = assay: Infection by control virus pseudotyped with A-MLV envelope glycoproteins; assay type: cell-based, amphotropic murine leukemia virus; conditions: at 100 μM
Experimental: as §1, §3

HIV-1 = assay: Inhibition of HIV-1 infection (overview statement); assay type: cell-based; conditions: Human immunodeficiency virus 1, read-out: IC50, inhibition of HIV-1 infection
[3] = target: wild-type HIV-1 YU2 gp120 glycoprotein (Human immunodeficiency virus type 1 group M subtype B, UniProt P35961); assay: Isothermal titration calorimetry, binding to gp120; conditions: ITC, 25° C.
Experimental: Isothermal Titration Calorimetry. Thermodynamic parameters for the binding of the different inhibitors to gp120 were obtained by isothermal titration calorimetry (ITC) using a VP-ITC microcalorimeter from MicroCal/GE Healthcare (Northampton, Mass., USA). The titrations were performed at 25° C. by injecting 10 μL aliquots of inhibitor solution into the calorimetric cell (volume ˜1.4 mL) containing gp120 at a concentration of 2 μM. […] In all titration experiments, gp120 and the different inhibitors were equilibrated with PBS, pH 7.4, with 2% DMSO. The heat evolved upon each injection of inhibitor was obtained by integration of the calorimetric signal. The heat associated with inhibitor binding to gp120 was obtained by subtracting the heat of dilution from the heat of reaction. The enthalpy change (ΔH) and association constant (Ka=[…]) were obtained by nonlinear regression of the data.
The thermodynamics of the binding of each compound to the wild-type HIV-1 YU2 gp120 glycoprotein was analyzed by isothermal titration calorimetry.

HIV-1 JR-FL [4] = assay: Cold inactivation of recombinant virus on ice; assay type: cell-based; conditions: compound 50 μM
Experimental: Cold Inactivation. […] Cf2Th-CCR5-CD4 target cells were seeded at a density of […] cells/well in a 96-well luminometer-compatible tissue-culture plate (PerkinElmer) 24 h before infection. The mixtures were then added to target cells and incubated for 48 h at 37° C.; after this time, the medium was removed from each well, and the cells were lysed by the addition of 30 μL passive lysis buffer (Promega) and three freeze-thaw cycles. An EG&G Berthold Microplate Luminometer LB 96V was used to measure the luciferase activity of each well after the addition of 100 μL of luciferin buffer (15 mM MgSO4, 15 mM KPO4, pH 7.8, 1 mM ATP, and 1 mM dithiothreitol) and 50 μL of 1 mM Firefly D-Luciferin Free Acid 99% (Prolume).

HIV-1 JR-FL [5] = assay: Sensitization assay: antibody neutralization of HIV-1 JR-FL with CD4-mimetic compound; assay type: cell-based; conditions: for sensitization of HIV-1 JR-FL to neutralization by 17b and 39F antibodies: sub-neutralizing compound concentrations
Experimental: as §2
The ability of (+)-DMJ-I-228 and (+)-DMJ-II-121 to each sensitize HIV-1 to neutralization by antibodies was examined using the single-round infection of Cf2Th-CD4/CCR5 cells by recombinant HIV-1 encoding firefly luciferase. The recombinant viruses were pseudotyped with the HIV-1 Envs derived from the primary R5 HIV-1 JR-FL and YU2 isolates. Recombinant HIV-1 pseudotyped with the amphotropic murine leukemia virus (A-MLV) Env was used as a control for specificity. HIV-L neutralization was examined in the presence of sub-neutralizing concentrations of the CD4-mimetic compounds and different concentrations of monoclonal antibodies. […] The 17b antibody recognizes a well-conserved CD4i epitope on the HIV-1 gp120 core that is not formed or exposed in the unliganded Env of primary HIV-1 strains. The 39F antibody recognizes a conformation-dependent epitope in the gp120 V3 region of primary R5 HIV-1. […] and (+)-DMJ-II-121 each render primary HIV-1 isolates sensitive to neutralization by monoclonal antibodies directed against CD4i and V3 epitopes on the gp120 Env.

HIV-1 YU2 [6] = assay: Sensitization assay: antibody neutralization of HIV-1 YU2 with CD4-mimetic compound; assay type: cell-based; conditions: sub-neutralizing compound concentrations
Experimental: as §2
The ability of (+)-DMJ-I-228 and (+)-DMJ-II-121 to each sensitize HIV-1 to neutralization by antibodies was examined using the single-round infection of Cf2Th-CD4/CCR5 cells by recombinant HIV-1 encoding firefly luciferase. The recombinant viruses were pseudotyped with the HIV-1 Envs derived from the primary R5 HIV-1 JR-FL and YU2 isolates. […]

[7] = test system: primary CD4 T cells infected with transmitted/founder (T/F) viruses and their 6-month counterparts; assay: Recognition of primary CD4 T cells infected with primary HIV-1 by HIV-1+ sera; assay type: cell-based, human; conditions: data not shown
[8] = target: HIV-1 JR-FL envelope glycoproteins (Env) (HIV-1 JR-FL); assay: cell-based or functional assay
[9] = target: HIV-1 YU2 envelope glycoproteins (Env) (HIV-1 YU2) (UniProt P35961); assay: cell-based or functional assay
HIV-1 JR-FL [10] = assay: Sensitization of HIV-1 JR-FL to neutralization by rabbit antisera elicited by gp120 cores; assay type: cell-based
Experimental: as §2
Animal inoculations and analysis of antisera. Approximately 12-week-old female New Zealand White rabbits were housed at the AAALAC-accredited facilities at Bioqual (Rockville, Md.) under specific pathogen-free conditions. At 4-week intervals, rabbits were inoculated intramuscularly with […] of affinity-purified protein formulated in GlaxoSmithKline Adjuvant System AS01B by splitting the protein-adjuvant mix in the two hind legs. Serum was prepared, heat inactivated, and assessed for anti-gp120 ELISA titers and the presence neutralizing antibodies.
(+)-DMJ-I-228 and (+)-DMJ-II-121 were examined to determine if they could sensitize HIV-1 to neutralization by antisera elicited by an Env immunogen. […] These stabilized gp120 cores were derived from the laboratory-adapted HIV-1 HXBc2 strain and lack the V1, V2, and V3 variable regions. […]

[11] = test system: HIV-1 transmitted/founder viruses; assay: Inhibition and 17b sensitization of transmitted/founder viruses; assay type: cell-based
Experimental: as §2
The ability of (+)-DMJ-II-121 to sensitize HIV-1 transmitted/founder viruses to neutralization by the 17b antibody (FIG. 8A) and antisera elicited by the 3CC gp120 core immunogen (FIG. 8B) was examined. In these experiments, the recombinant viruses were pseudotyped with the HIV-1 Envs derived from HIV-1 transmitted/founder viruses. Recombinant HIV-1 pseudotyped with the primary R5 HIV-1 JR-FL and the amphotropic murine leukemia virus (A-MLV) Envs served as positive and negative controls, respectively. HIV-1 neutralization was examined in the presence of sub-neutralizing concentrations of (+)-DMJ-II-121 and different concentrations of the 17b antibody or sera.

[12] = test system: HIV-1 transmitted/founder viruses; assay: Sensitization of transmitted/founder viruses to 3CC gp120 core antisera; assay type: cell-based
Experimental: as §2
Animal inoculations and analysis of antisera. Approximately 12-week-old female New Zealand White rabbits were housed at the AAALAC-accredited facilities at Bioqual (Rockville, Md.) under specific pathogen-free conditions. […] Serum was prepared, heat inactivated, and assessed for anti-gp120 ELISA titers and the presence neutralizing antibodies. […]

Molecule: N=C(N)N[C@H]1Cc2ccccc2[C@@H]1NC(=O)C(=O)Nc1ccc(Cl)c(F)c1 [(+)-DMJ-I-228]
- IC50 (HIV-1 JR-FL [1]): 86.9 µM
- inhibition of HIV-1 JR-FL virus relative to parental NBD-556 (HIV-1 JR-FL [1]): specifically inhibited the HIV-1 JR-FL virus with an improved potency
- IC50 (HIV-1 YU2 [2]): 46.7 µM
- inhibition of A-MLV infection (A-MLV): Neither (+)-DMJ-I-228 nor (+)-DMJ-II-121 inhibited A-MLV infection
- IC50 (HIV-1): 22.9 µM
- ability to bind monomeric gp120 relative to NBD-556 [3]: significant improvement in the ability to bind monomeric gp120
- half-life of HIV-1 JR-FL infectivity on ice in the presence of the compound (HIV-1 JR-FL [4]): 9.1 h
- sensitization of HIV-1 JR-FL to neutralization by 17b and 39F antibodies (HIV-1 JR-FL [5]): each sensitized HIV-1 YU2 and JR-FL to neutralization by the 17b and 39F antibodies
- sensitization of HIV-1 YU2 to neutralization by 17b and 39F antibodies (HIV-1 YU2 [6]): each sensitized HIV-1 YU2 and JR-FL to neutralization by the 17b and 39F antibodies
- recognition of cells infected with four primary viruses by HIV-1+ sera [7]: significantly enhance recognition

Molecule: 17b antibody
- IC50, inhibition of HIV-1 JR-FL entry into cells co-expressing CD4 and CCR5, in the presence of 30 µM (+)-DMJ-II-121 [8]: 0.6 µg/mL
- neutralization of pseudotyped virus, no CD4-mimetic compound [8]: > 100 µg/mL
- neutralization of pseudotyped virus, no CD4-mimetic compound [9]: > 100 µg/mL

Molecule: N=C(N)NC[C@H]1Cc2ccccc2[C@@H]1NC(=O)C(=O)Nc1ccc(Cl)c(F)c1 [(+)-DMJ-II-121]
- IC50 (HIV-1 JR-FL [1]): 27.8 µM
- inhibition of HIV-1 JR-FL virus relative to parental NBD-556 (HIV-1 JR-FL [1]): specifically inhibited the HIV-1 JR-FL virus with an improved potency
- IC50 (HIV-1 YU2 [2]): 3.6 µM
- inhibition of A-MLV infection (A-MLV): Neither (+)-DMJ-I-228 nor (+)-DMJ-II-121 inhibited A-MLV infection
- IC50 (HIV-1): 2.3 µM
- ability to bind monomeric gp120 relative to NBD-556 [3]: significant improvement in the ability to bind monomeric gp120
- half-life of HIV-1 JR-FL infectivity on ice in the presence of the compound (HIV-1 JR-FL [4]): 1.9 h
- sensitization of HIV-1 JR-FL to neutralization by 17b and 39F antibodies (HIV-1 JR-FL [5]): each sensitized HIV-1 YU2 and JR-FL to neutralization by the 17b and 39F antibodies
- sensitization of HIV-1 YU2 to neutralization by 17b and 39F antibodies (HIV-1 YU2 [6]): each sensitized HIV-1 YU2 and JR-FL to neutralization by the 17b and 39F antibodies
- sensitization of HIV-1 JR-FL to neutralization by sera from rabbits immunized with 3CC or 4CC stabilized gp120 cores (HIV-1 JR-FL [10]): sensitized HIV-1 JR-FL to neutralization
- sera elicited by non-stabilized V3S core that neutralized HIV-1 JR-FL after incubation with compound (HIV-1 JR-FL [10]): None of the rabbit sera
- sera from rabbits immunized with the 2CC gp120 core that neutralized HIV-1 JR-FL only in the presence of compound (HIV-1 JR-FL [10]; five sera): Three of the five sera
- number of transmitted/founder viruses sensitive to compound inhibition but not sensitized to 17b neutralization [11]: Three
- sensitivity of transmitted/founder virus TA5 to the compound alone ([11]; TA5 virus): did not exhibit sensitivity
- number of 17b-resistant transmitted/founder HIV-1 sensitized to neutralization by the 17b antibody ([11]; of ten 17b-resistant viruses, 50 μM compound): six
- sensitivity of TD12 and B5 transmitted/founder viruses to 3CC antisera in the presence of compound [12]: increased sensitivity to neutralization by 3CC antisera

Molecule: 39F antibody
- neutralization of pseudotyped virus, no CD4-mimetic compound [8]: > 100 µg/mL
- neutralization of pseudotyped virus, no CD4-mimetic compound [9]: > 100 µg/mL

Molecule: CC1(C)CC(NC(=O)C(=O)Nc2ccc(Cl)cc2)CC(C)(C)N1 [NBD-556, reference compound]
- half-life of HIV-1 JR-FL infectivity on ice in the presence of the compound (HIV-1 JR-FL [4]): 15.7 h
- effect on neutralization of HIV-1 JR-FL by the 17b antibody (HIV-1 JR-FL [5]): minimally affected
- effect on neutralization of HIV-1 JR-FL by the 39F antibody (HIV-1 JR-FL [5]; only at high concentrations): weakly increase
